Source: patent publication US20140112895A1, “GLP-1 PROMOTER MEDIATED INSULIN EXPRESSION FOR THE TREATMENT OF DIABETES” (priority 2010, published 2014)

Tested on: STC-1 cells
Test: MTT assay of antibiotic cytotoxicity on STC-1 cells
Type: cell-based, mouse
Conditions: STC-1 cells without antibiotic resistant gene; antibiotic range 0 to 1 mg/ml; optical density read at 560 nm
Text: For assessment of antibiotic cytotoxicity, a common methodology is the MTT assay which has been widely used as a colorimetric approach based on the activity of living cells. MTT assay is a standard assay (an assay which measures changes in color) for measuring cellular proliferation. Yellow MTT (3-(4,5-Dimethylthiazol-2-yl)-2,5-diphenyltetrazolium bromide, a tetrazole) is reduced to purple formazan in the mitochondria of living cells. The absorbance of this colored solution can be quantified by measuring at a certain wavelength (usually between 500 and 600 nm) by a spectrophotometer.
Therefore, the MTT assay was done for both antibiotics to determine the appropriate concentration of the antibiotic that kills the entire STC-1 cells lacking the antibiotic resistant gene. In this case, STC-1 cells (without any antibiotic resistant gene) were treated with different concentration of zeocin and geneticin antibiotic. The concentration of antibiotics in the culture media was in the range of 0 to 1 mg/ml in 12 wells (Table 7).
Optical density of solutions was read at 560 nm on an ELISA plate reader. The absorbance of colored solution is directly proportional to the number of cells. Based on MTT assay result, the concentration of geneticin and zeocin antibiotic that are able to kill all the STC-1 cells (without antibiotic resistant gene) were 400 ug/ml and 500 ug/ml.

CN[C@@H]1[C@@H](O)[C@@H](O[C@@H]2[C@@H](O)[C@H](O[C@H]3O[C@H]([C@@H](C)O)[C@@H](O)[C@H](O)[C@H]3N)[C@@H](N)C[C@H]2N)OC[C@]1(C)O [geneticin]
concentration of antibiotic able to kill all the STC-1 cells: 400 µg/mL

Cc1c(N)nc([C@H](CC(N)=O)NC[C@H](N)C(N)=O)nc1C(=O)N[C@H](C(=O)N[C@H](C)[C@@H](O)[C@H](C)C(=O)N[C@H](C(=O)NCCC1=N[C@@H](c2nc(C(=O)NCCCCN=C(N)N)cs2)CS1)[C@@H](C)O)[C@@H](O[C@@H]1O[C@@H](CO)[C@@H](O)[C@H](O)[C@@H]1O[C@H]1O[C@H](CO)[C@@H](O)[C@H](OC(N)=O)[C@@H]1O)c1cnc[nH]1 [zeocin]
concentration of antibiotic able to kill all the STC-1 cells: 500 µg/mL
